Experiments:
[1] = biological target: mouse HDAC2 (Mus musculus, UniProt P70288); assay: biochemical
Description: Briefly, this assay relies on the release of radioactive acetate from a radioactively labelled histone fragment by the action of HDAC enzyme. Test compounds, which inhibit HDAC, reduce the yield of radioactive acetate. Signal (e.g., scintillation counts) measured in the presence and absence of a test compound provide an indication of that compound's ability to inhibit HDAC activity. Decreased activity indicates increased inhibition by the test compound. […]
After purification of the radiolabelled histone fragment, it was incubated with a source of HDAC (e.g., an extract of HeLa cells (a rich source of HDAC), recombinantly produced HDAC1 or HDAC2) and any released acetate was extracted into an organic phase and quantitatively determined using scintillation counting. By including a test compound with the source of HDAC, that compound's ability to inhibit the HDAC was determined. […]
A source of HDAC (e.g., 2 μL of crude HeLa extract, 5 μL of HDAC1 or HDAC2; in elution buffer, as above) was incubated with 3 μL of radioactively labelled peptide along with appropriate dilutions of candidate compounds (1.5 μL) in a total volume of 150 μL of buffer (20 mM Tris pH 7.4, 10% glycerol). […] Radioactivity was measured using a Tri-Carb 2100TR Liquid Scintillation Analyzer (Packard). […]

[2] = test system: HeLa cells; assay: Secondary assay: cell proliferation inhibition WST-1, HeLa; format: cell-based; conditions: Homo sapiens, 48 h, read-out: Cell Proliferation Inhibition WST-1 (IC50 unless otherwise specified) HeLa
Description: (§1) Compounds with HDAC inhibition activity, as determined using the primary assay, were subsequently evaluated using secondary cell-based assays. The following cell lines were used:
(§2) HeLa—Human cervical adenocarcinoma cell line (ATCC ref. No. CCL-2). K11—HPV E7 transformed human keratinocyte line provided by Pidder Jansen-Duerr, Institut für Biomedizinische Altemsforschung, Innsbruck, Austria. NHEK-Ad—Primary human adult keratinocyte line (Cambrex Corp., East Rutherford, N.J., USA).
(§3) Cells were plated in 96-well plates at 3-10×10^3 cells/well in 100 μL of culture medium. The following day, different concentrations of candidate compounds were added and the cells incubated at 37° C. for 48 h. Subsequently, 10 μL/well of WST-1 reagent was added and the cells reincubated for 1 hour. After the incubation time, absorbance was measured.
(§4) WST-1 is a tetrazolium salt which is cleaved to formazan dye by cellular enzymes. An expansion in the number of viable cells results in an increase in the overall activity of mitochondrial dehydrogenases in the sample. This augmentation in the enzyme activity leads to an increase in the amount of formazan dye formed, which directly correlates to the number of metabolically active cells in the culture. The formazan dye produced is quantified by a scanning multiwell spectrophotometer by measuring the absorbance of the dye solution at 450 nm wavelength (reference wavelength 690 nm).
(§5) Percent activity (% activity) in reducing the number of viable cells was calculated for each test compound as:
(§6) % activity={(S^C−B)/(S^o−B)}×100
(§7) IC50 values were calculated using the software package Prism 3.0 (GraphPad Software Inc., San Diego, Calif.), setting top value at 100 and bottom value at 0.

[3] = test system: K11 (HPV E7 transformed human keratinocyte line); assay: Secondary assay: cell proliferation inhibition WST-1, K11; format: cell-based; conditions: Homo sapiens, Keratinocyte, 48 h, read-out: Cell Proliferation Inhibition WST-1 (IC50 unless otherwise specified) K11
Description: as §1, §2, §3, §4, §5, §6, §7

[4] = test system: NHEK-Ad (primary human adult keratinocyte line); assay: Secondary assay: cell proliferation inhibition WST-1, NHEK-Ad; format: cell-based; conditions: Homo sapiens, Keratinocyte, 48 h, read-out: Cell Proliferation Inhibition WST-1 (IC50 unless otherwise specified) NHEK-AD
Description: as §1, §2, §3
WST-1 is a tetrazolium salt which is cleaved to formazan dye by cellular enzymes. […] The formazan dye produced is quantified by a scanning multiwell spectrophotometer by measuring the absorbance of the dye solution at 450 nm wavelength (reference wavelength 690 nm).
Percent activity (% activity) in reducing the number of viable cells was calculated for each test compound as: […]
as §7

[5] = test system: JURKAT (human T-cell line); assay: Secondary assay: cell proliferation inhibition WST-1, Jurkat; format: cell-based; conditions: Homo sapiens, 48 h, read-out: Cell Proliferation Inhibition WST-1 (IC50 unless otherwise specified) Jurkat

Sequence of mouse HDAC2 (P70288 whole entry, the tested form may be a part): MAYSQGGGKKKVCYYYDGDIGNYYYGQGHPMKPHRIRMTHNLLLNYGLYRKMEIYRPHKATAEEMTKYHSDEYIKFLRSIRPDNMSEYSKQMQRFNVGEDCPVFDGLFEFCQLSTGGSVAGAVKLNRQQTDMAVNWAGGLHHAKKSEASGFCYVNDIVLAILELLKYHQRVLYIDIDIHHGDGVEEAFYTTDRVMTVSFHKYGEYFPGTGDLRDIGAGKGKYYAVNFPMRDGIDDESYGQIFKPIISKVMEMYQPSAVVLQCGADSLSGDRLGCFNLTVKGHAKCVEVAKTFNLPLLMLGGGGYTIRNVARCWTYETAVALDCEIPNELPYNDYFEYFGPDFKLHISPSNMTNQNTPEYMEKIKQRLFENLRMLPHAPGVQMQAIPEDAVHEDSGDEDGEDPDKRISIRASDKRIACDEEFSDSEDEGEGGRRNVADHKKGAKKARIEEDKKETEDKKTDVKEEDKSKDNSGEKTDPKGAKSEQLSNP

`CC(/C=C/C(=O)NO)=C\[C@@H](C)C(=O)c1ccc(N(C)C)cc1` [TSA, Trichostatin A, reference compound] was tested, and the IC50 [1] was 17 nM, the IC50 [2] was 350 nM and the IC50 [3] was 380 nM. For the same compound, the IC50 [4] was 200 nM and the IC50 [5] was 42 nM.

Source: patent US20080269237A1, “CARBAMIC ACID COMPOUNDS COMPRISING A PIPERAZINE LINKAGE AS HDAC INHIBITORS” (TOPOTARGET UK LIMITED, priority 2002, published 2008)
